Here are results for four compounds from patent publication US12152022B2, “N-[5-(aminosulfonyl)-4-methyl-1,3-thiazol-2-yl]-N-methyl-2-[4-(2-pyridinyl)-phenyl]-acetamide free base hemihydrate, methods of manufacture and uses thereof” (AiCuris Anti-Infective Cures GmbH, priority 2016, dated 2024).

Structures are written as SMILES.

A short description of series [1]: pKa value by photometric titration. The series is classed as physicochemical. The method, then:
(§1) The physical characterization of the free base hemihydrate referred to herein was performed using compendial methods as per European Pharmacopoeia (Ph. Eur.) and/or the U.S.
(§2) The identified forms were then further characterized by several methods: XRPD, Optical microscopy, ^1H-NMR, DSC, TGA, and DVS. The physical characterization of the free base hemihydrate referred to herein was performed using compendial methods as per European Pharmacopoeia (Ph. Eur.) and/or the U.S. Pharmacopeial Convention (USP).
(§3) General properties of N-[5-(aminosulfonyl)-4-methyl-1,3-thiazol-2-yl]-N-methyl-2-[4-(2-pyridinyl)-phenyl]-acetamide hemihydrate Table 9: […]

A short description of series [2]: Hygroscopicity / DVS water sorption. The series is classed as physicochemical. The following applies: for DVS: release and adsorption of water: 25° C., experiment time <600 min for Form C. The text has this:
FIG. 6A: weight vs. relative humidity, FIG. 6B: measurement over time.
(§4) The hemihydrate Form C was isolated on larger scale. The starting material for the screening (Form B) was a monohydrate. Additionally a potential dihydrate (form L) was identified. […] To extend the exposure to different relative humidity (RH) values small vials with solid/saturated solutions were loaded with an open pan of Form C on top and the sealed vials kept for 5 days (see the data below for different humidity levels).

The nature of series [3]: Octanol/water partition coefficient. The series is classed as physicochemical. Conditions: 25° C. The method, then: as §1, §2, §3
The nature of series [4]: Exposure of Form C to different relative humidity values, check by XRPD. The series is classed as physicochemical. The following applies: <5% to 100% RH, sealed vials, 5 days.
Description: as §4

Series [5] in a line: Saturated solubility in individual excipients. The series is classed as physicochemical. Conditions: mean, n=3. The text has this: Comparative Solubility of Free Base and Free Base Hemihydrate in Individual Excipients Saturated solubility (% w/w) of two forms of pritelivir (batches BXR2KVE for the free base and M023862-CA15-033 for pritelivir hemihydrate) in PEG 400 and propylene glycol, mean (range, n=3) are shown in Table 11 below.

Series [6] has as its system HSV-2. Conditions: once daily suppressive therapy; cited from earlier work.
In series [7] the test system is herpes simplex virus. Conditions: compared with N-[5-(amino-sulfonyl)-4-methyl-1,3-thiazol-2-yl]-N-methyl-2-[4-(2-pyridinyl)phenyl]acetamide; cited from earlier work.

In general, logP refers to a log measure of how a compound divides between an organic and an aqueous phase. Low readings indicate lower lipophilicity, high ones higher lipophilicity. Regarding `Cc1nc(N(C)C(=O)Cc2ccc(-c3ccccn3)cc2)sc1S(N)(=O)=O` [pritelivir hemihydrate, N-[5-(aminosulfonyl)-4-methyl-1,3-thiazol-2-yl]-N-methyl-2-[4-(2-pyridinyl)-phenyl]-acetamide free base hemihydrate], in series [1], the “pKa value (photometric titration)” value came out at 4.6. Besides, in series [2], the Hygroscopicity result is given as “Not hygroscopic”. The “DVS: release and adsorption of water” value in series [2] (hemihydrate) was “almost no change”. Besides, the logP in series [3] is -0.0405. The “Solid form by XRPD after humidity exposure” value in series [4] is listed as “all samples confirmed to be Form C”. Further, in series [5] (PEG 400, hemihydrate), the “Saturated solubility in PEG 400” value is 7.87 % w/w. The “Saturated solubility in propylene glycol” value in series [5] (Propylene glycol, hemihydrate) amounted to 0.59 % w/w.

As to `Cc1nc(N(C)C(=O)Cc2ccc(-c3ccccn3)cc2)sc1S(N)(=O)=O` [pritelivir free base, N-[5-(aminosulfonyl)-4-methyl-1,3-thiazol-2-yl]-N-methyl-2-[4-(2-pyridinyl)-phenyl]-acetamide], the “DVS: release and adsorption of water” value in series [2] (listed as Form B) is “release and adsorb water more rapidly than Form C”. In series [5] (PEG 400), the “Saturated solubility in PEG 400” value turned out to be 3.30 % w/w. In addition, in series [5] (PEG 400, column marked *, asterisk not explained), the “Saturated solubility in PEG 400 (free base*)” value was determined as 7.87 % w/w. In addition, in series [5] (Propylene glycol), the “Saturated solubility in propylene glycol” value turned out to be 0.20 % w/w. Besides, the “Saturated solubility in propylene glycol (free base*)” value in series [5] (Propylene glycol, column marked *, asterisk not explained) was found to be 2.84 % w/w.

Turning to `CC(C)[C@H](N)C(=O)OCCOCn1cnc2c(=O)[nH]c(N)nc21` [valacyclovir], the “Risk of transmission of genital herpes” value in series [6] was “significantly reduces the risk of transmission”.

As to `C[C@H](Cn1cnc2c(N)ncnc21)OCP(=O)(O)O` [Tenofovir], the “IC50-values compared to pritelivir” value in series [7] is on record as “significantly higher”.
